In ChEMBL document CHEMBL1649500, “GS-9191 is a novel topical prodrug of the nucleotide analog 9-(2-phosphonylmethoxyethyl)guanine with antiproliferative activity and possible utility in the treatment of human papillomavirus lesions” (Antimicrob Agents Chemother, 2009):
Calls of active or inactive are those of the source. The calls are words filed in the database; no cut-off is given here.

How the values were obtained:
SiHa [1] = test: Cell cycle arrest in HPV-transformed human SiHa cells assessed as accumulation at G2/M phase at 10 times EC50 after 48 hrs by flow cytometry; assay type: functional
SCC-4 = test: Antiproliferative activity against HPV-non-transformed human SCC4 cells after 7 days by SRB assay; assay type: functional, cell-based; conditions: SCC-4, 168 h
SiHa [2] = test: Induction of apoptosis in HPV-transformed human SiHa cells assessed as viable cells at 27 nM after 7 days by propidium iodide staining-based flow cytometry; assay type: functional; conditions: 168 h, read-out: Activity
SiHa [3] = test: Induction of apoptosis in HPV-transformed human SiHa cells assessed as viable cells at 270 nM after 7 days by propidium iodide staining-based flow cytometry; assay type: functional; conditions: 168 h, read-out: Activity
HeLa [4] = test: Induction of apoptosis in HPV-transformed human HeLa cells at 2.7 to 270 nM after 3 to 7 days by propidium iodide staining-based flow cytometry; assay type: functional, cell-based
SiHa [5] = test: Inhibition of DNA synthesis in HPV-transformed human SiHa cells assessed as decrease in BrdU incorporation after 24 to 27 hrs by ELISA; assay type: functional, cell-based
[6] = Drug metabolism in human CK cells assessed as PMEG AUC (0 to 32 hrs) at 1 uM by HPLC analysis; assay type: ADME, cell-based; set-up: time < 32 hr, dose 1 uM
[7] = Antiproliferative activity against human PHK after 7 days by SRB assay
[8] = Antiproliferative activity against human CK after 7 days by SRB assay
HT-3 = test: Antiproliferative activity against HPV-non-transformed human HT3 cells after 7 days by SRB assay; assay type: functional, cell-based; conditions: HT-3, 168 h
SiHa [9] = test: Inhibition of DNA synthesis in HPV-transformed human SiHa cells assessed as decrease in BrdU incorporation after 6 to 9 hrs by ELISA; assay type: functional, cell-based
[10] = Antiproliferative activity against HPV-transformed human MS751 cells after 7 days by SRB assay; assay type: functional, cell-based; conditions: MS751, 168 h
[11] = Cell cycle arrest in human PHK cells assessed as accumulation at G2/M phase at 10 times EC50 after 48 hrs by flow cytometry; assay type: cell-based
SiHa [12] = test: Induction of apoptosis in HPV-transformed human SiHa cells assessed as apoptotic cells at 2.7 nM after 3 days by propidium iodide staining-based flow cytometry; assay type: functional
A-431 = test: Cell cycle arrest in human A431 cells assessed as accumulation at S phase at 10 times EC50 after 48 hrs by flow cytometry; assay type: functional, cell-based
SiHa [13] = test: Cell cycle arrest in HPV-transformed human SiHa cells assessed as accumulation at S phase at 10 times EC50 after 48 hrs by flow cytometry; assay type: functional
[14] = Cell cycle arrest in human PHK cells assessed as accumulation at G0/G1 phase at 10 times EC50 after 48 hrs by flow cytometry; assay type: cell-based
SiHa [15] = test: Induction of apoptosis in HPV-transformed human SiHa cells assessed as viable cells at 270 nM after 3 days by propidium iodide staining-based flow cytometry; assay type: functional; conditions: 72 h, read-out: Activity
[16] = Antiproliferative activity against NHBE cells after 7 days by SRB assay; assay type: cell-based; conditions: Homo sapiens, 168 h
[17] = Drug metabolism in human CaSki cells assessed as PMEG AUC (0 to 32 hrs) at 1 uM by HPLC analysis; assay type: ADME, cell-based; set-up: time < 32 hr, dose 1 uM; conditions: ca-ski
SiHa [18] = test: Induction of apoptosis in HPV-transformed human SiHa cells assessed as apoptotic cells at 27 nM after 3 days by propidium iodide staining-based flow cytometry; assay type: functional
[19] = Antiproliferative activity against human lung fibroblast after 7 days by SRB assay; conditions: 168 h
[20] = tested on: Cottontail rabbit papillomavirus; test: Antiviral activity against Cottontail rabbit papillomavirus infected in New Zealand White rabbit assessed as effect on viral growth rate at 0.5% administered topically measured on day 48; assay type: functional; conditions: Kappapapillomavirus 2
Ca-Ski [21] = test: Cell cycle arrest in HPV-transformed human CaSki cells assessed as accumulation at S phase at 10 times EC50 after 48 hrs by flow cytometry; assay type: functional, cell-based
SiHa [22] = test: Inhibition of DNA synthesis in HPV-transformed human SiHa cells assessed as decrease in BrdU incorporation after 3 hrs by ELISA; assay type: functional, cell-based
[23] = Antiproliferative activity against PHF after 7 days by SRB assay; set-up: species or system Homo sapiens
SiHa [24] = test: Induction of apoptosis in HPV-transformed human SiHa cells assessed as viable cells at 27 nM after 3 days by propidium iodide staining-based flow cytometry; assay type: functional; conditions: 72 h, read-out: Activity
[25] = tested on: Cottontail rabbit papillomavirus; test: Antiviral activity against Cottontail rabbit papillomavirus infected in New Zealand White rabbit assessed as decrease in pailloma size at 0.1% administered topically measured on day 48; assay type: functional, Kappapapillomavirus 2
SiHa [26] = test: Induction of apoptosis in HPV-transformed human SiHa cells assessed as apoptotic cells at 27 nM after 7 days by propidium iodide staining-based flow cytometry; assay type: functional
[27] = Antiproliferative activity against HPV-transformed human C4I cells after 7 days by SRB assay; assay type: functional, cell-based; conditions: C-4I, 168 h
[28] = Drug metabolism in human lung fibroblast assessed as cPrPMEDAP AUC (0 to 32 hrs) at 1 uM by HPLC analysis; assay type: ADME; set-up: dose 1 uM, time < 32 hr
Ca-Ski [29] = test: Antiproliferative activity against HPV-transformed human CaSki cells after 7 days by SRB assay; assay type: functional, cell-based; conditions: 168 h
SiHa [30] = test: Drug metabolism in human SiHa cells assessed as PMEG AUC (0 to 32 hrs) at 1 uM by HPLC analysis; assay type: ADME, cell-based; set-up: dose 1 uM, time < 32 hr
SiHa [31] = test: Induction of apoptosis in HPV-transformed human SiHa cells assessed as apoptotic cells at 2.7 nM after 7 days by propidium iodide staining-based flow cytometry; assay type: functional
[32] = tested on: Cottontail rabbit papillomavirus; test: Antiviral activity against Cottontail rabbit papillomavirus infected in New Zealand White rabbit assessed as decrease in pailloma size at 0.01% administered topically measured on day 48; assay type: functional, Kappapapillomavirus 2
SiHa [33] = test: Induction of apoptosis in HPV-transformed human SiHa cells assessed as viable cells at 2.7 nM after 7 days by propidium iodide staining-based flow cytometry; assay type: functional; conditions: 168 h, read-out: Activity
SiHa [34] = test: Induction of apoptosis in HPV-transformed human SiHa cells assessed as viable cells at 2.7 nM after 3 days by propidium iodide staining-based flow cytometry; assay type: functional; conditions: 72 h, read-out: Activity
SiHa [35] = test: Inhibition of DNA synthesis in HPV-transformed human SiHa cells assessed as decrease in BrdU incorporation after 48 to 51 hrs by ELISA; assay type: functional, cell-based
SiHa [36] = test: Antiproliferative activity against HPV-transformed human SiHa cells after 7 days by SRB assay; assay type: functional, cell-based; conditions: 168 h
SiHa [37] = test: Inhibition of DNA synthesis in HPV-transformed human SiHa cells assessed as decrease in BrdU incorporation after 3 to 6 hrs by ELISA; assay type: functional, cell-based
SCC-9 = test: Antiproliferative activity against HPV-non-transformed human SCC9 cells after 7 days by SRB assay; assay type: functional, cell-based; conditions: SCC-9, 168 h
HeLa [38] = test: Antiproliferative activity against HPV-transformed human HeLa cells after 7 days by SRB assay; assay type: functional, cell-based; conditions: 168 h
SiHa [39] = test: Induction of apoptosis in HPV-transformed human SiHa cells assessed as apoptotic cells at 270 nM after 3 days by propidium iodide staining-based flow cytometry; assay type: functional
SiHa [40] = test: Cell cycle arrest in HPV-transformed human SiHa cells assessed as accumulation at G0/G1 phase at 10 times EC50 after 48 hrs by flow cytometry; assay type: functional
[41] = tested on: Cottontail rabbit papillomavirus; test: Antiviral activity against Cottontail rabbit papillomavirus infected in New Zealand White rabbit assessed as decrease in pailloma size at 0.3% administered topically measured on day 48; assay type: functional, Kappapapillomavirus 2
SiHa [42] = test: Inhibition of DNA synthesis in HPV-transformed human SiHa cells assessed as decrease in BrdU incorporation after 72 to 75 hrs by ELISA; assay type: functional, cell-based
SiHa [43] = test: Induction of apoptosis in HPV-transformed human SiHa cells assessed as apoptotic cells at 270 nM after 7 days by propidium iodide staining-based flow cytometry; assay type: functional
[44] = Cell cycle arrest in human PHK cells assessed as accumulation at S phase at 10 times EC50 after 48 hrs by flow cytometry; assay type: cell-based
ME-180 = test: Antiproliferative activity against HPV-transformed human ME180 cells after 7 days by SRB assay; assay type: functional, cell-based; conditions: ME-180, 168 h
Ca-Ski [45] = test: Induction of apoptosis in HPV-transformed human CaSki cells at 2.7 to 270 nM after 3 to 7 days by propidium iodide staining-based flow cytometry; assay type: functional, cell-based

CC(C)COC(=O)[C@H](Cc1ccccc1)NP(=O)(COCCn1cnc2c(NC3CC3)nc(N)nc21)N[C@@H](Cc1ccccc1)C(=O)OCC(C)C [GS-9191]
Activity (SiHa [1]): 7.3% | EC50 (SCC-4): 5.03 nM | viability at 0.027 µM (SiHa [2]): 17.4% | viability at 0.27 µM (SiHa [3]): 15.5% | Activity (HeLa [4]): Active | EC50 (SiHa [5]): 1.8 nM | AUC [6]: 33.4 µM·h | EC50 [7]: 2.91 nM | EC50 [8]: 2.1 nM | EC50 (HT-3): 5.42 nM | EC50 (SiHa [9]): 1 nM | EC50 [10]: 0.04 nM | Activity [11]: 7.5% | Activity (SiHa [12]): 3.4% | Activity (A-431): Active | Activity (SiHa [13]): 65.6% | Activity [14]: 56.4% | viability at 0.27 µM (SiHa [15]): 79.6% | EC50 [16]: 0.98 nM | AUC [17]: 170 µM·h | Activity (SiHa [18]): 14.6% | EC50 [19]: 7.44 nM | Activity [20]: inactive | Activity (Ca-Ski [21]): Active | EC50 (SiHa [22]): > 74 nM | EC50 [23]: 4.75 nM | viability at 0.027 µM (SiHa [24]): 83.7% | inhibition (INH) [25]: 70% | Activity (SiHa [26]): 82.2% | EC50 [27]: 0.44 nM | AUC [28]: 835 µM·h | EC50 (Ca-Ski [29]): 2.03 nM | AUC (SiHa [30]): 1960 µM·h | Activity (SiHa [31]): 33.1% | inhibition (INH) [32]: 53% | viability at 0.0027 µM (SiHa [33]): 65.5% | viability at 0.0027 µM (SiHa [34]): 95.2% | EC50 (SiHa [35]): 7.9 nM | EC50 (SiHa [36]): 0.03 nM | EC50 (SiHa [37]): 7.8 nM | EC50 (SCC-9): 15.3 nM | EC50 (HeLa [38]): 0.71 nM | Activity (SiHa [39]): 19.6% | Activity (SiHa [40]): 27.1% | inhibition (INH) [41]: 70% | EC50 (SiHa [42]): 11.5 nM | Activity (SiHa [43]): 84.1% | Activity [44]: 36.1% | EC50 (ME-180): 1.83 nM | Activity (Ca-Ski [45]): Active
